Eight compounds from US9936701B2, “Herbicidal compounds” (Syngenta Participations AG, priority 2013, dated 2018) can be followed below.

The subject of data set [1] is a variety of test species. The data set can be described thus: Pre-emergence herbicidal activity (glasshouse, sprayed one day after sowing, evaluated after 13 days). In kind it is in vivo. To be noted: application pre-emergence, rate 1000 g/Ha, scale 0-5. Details: key: 5=total damage to plant; 0=no damage to plant. Put shortly:
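Damage rated 13 days post-treatment on a 0-5 scale, 5 meaning total plant damage. Pots were sprayed pre-emergence, one day after sowing, with an acetone/water-derived aqueous spray containing 0.5% Tween 20. Plants grew under 14 h light, 65% humidity, 24/16 °C, watered twice daily.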

The subject of data set [2] is a variety of test species. The data set can be described thus: Post-emergence herbicidal activity (glasshouse, sprayed after 8 days cultivation, evaluated after 13 days). In kind it is in vivo. Details: key: 5=total damage to plant; 0=no damage to plant. The note with it: rate 1000 g/Ha, scale 0-5. In a few lines: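 Damage was rated 0-5 (5 = total) 13 days after a post-emergence spray of acetone/water (50:50) plus 0.5% Tween 20 formulation. Plants were sprayed at 8 days' growth and kept at 24/16° C, 14 h light, 65% humidity, watered twice daily.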

Turning to `CC1=C(Br)C(=O)N(c2noc(C(C)(C)C)c2C#N)C1O` (centres unmarked) [A50], the melting point (usually the temperature of the solid-liquid transition) was in the range of 182 to 184 °C. In addition, in data set [1], the “Pre-emergence herbicidal damage score, ABUTH” value is given as 5; the “Pre-emergence herbicidal damage score, ALOMY” value came out at 3; the “Pre-emergence herbicidal damage score, AMARE” value was determined as 5; the “Pre-emergence herbicidal damage score, ECHCG” value is 4. In data set [1], the “Pre-emergence herbicidal damage score, SETFA” value was determined as 5 and the “Pre-emergence herbicidal damage score, ZEAMX” value is given as 3. In data set [2], the “ABUTH (Abutilon theophrasti) damage score, application post-emergence” value (shortened to “ABUTH … application post-emergence”) was 5; the “ALOMY (Alopecurus myosuroides) damage score, application post-emergence” value (from here on “ALOMY … application post-emergence”) is reported as 4; the “AMARE (Amaranthus retroflexus) damage score, application post-emergence” value (shortened to “AMARE … application post-emergence”) was determined as 5; the “ECHCG (Echinochloa crus-galli) damage score, application post-emergence” value (“ECHCG … application post-emergence” below) is listed as 5. In data set [2], the “SETFA (Setaria faberi) damage score, application post-emergence” value (from here on “SETFA (Setaria faberi) damage score”) worked out at 5 and the “ZEAMX (Zea mays) damage score, application post-emergence” value (shortened to “ZEAMX (Zea mays) damage score”) was 3.
With `CCCC1=C(Br)C(=O)N(c2noc(C(C)(C)C)c2C#N)C1O` (centres unmarked) [A51], the melting point is 123 to 124 °C. In data set [1], the “Pre-emergence herbicidal damage score, ABUTH” value was found to be 4; the “Pre-emergence herbicidal damage score, ALOMY” value is on record as 3; the “Pre-emergence herbicidal damage score, AMARE” value is 5; the “Pre-emergence herbicidal damage score, ECHCG” value was determined as 4. In addition, in data set [1], the “Pre-emergence herbicidal damage score, SETFA” value is recorded as 4 and the “Pre-emergence herbicidal damage score, ZEAMX” value is listed as 3. In data set [2], the “ABUTH … application post-emergence” value turned out to be 5; the “ALOMY … application post-emergence” value was 4; the “AMARE … application post-emergence” value is recorded as 5; the “ECHCG … application post-emergence” value is reported as 5. In data set [2], the “SETFA (Setaria faberi) damage score” value amounted to 5 and the “ZEAMX (Zea mays) damage score” value was found to be 3.
`CCCC1=C(Br)C(=O)N(c2cc(C(C)(C)C#N)on2)C1O` (centres unmarked) [A52] displayed a melting point of 80 to 82 °C. In addition, in data set [1], the “Pre-emergence herbicidal damage score, ABUTH” value was found to be 5; the “Pre-emergence herbicidal damage score, ALOMY” value was found to be 4; the “Pre-emergence herbicidal damage score, AMARE” value is reported as 5; the “Pre-emergence herbicidal damage score, ECHCG” value is recorded as 5. For the same compound, in data set [1], the “Pre-emergence herbicidal damage score, SETFA” value is on record as 5 and the “Pre-emergence herbicidal damage score, ZEAMX” value worked out at 4. Also, in data set [2], the “ABUTH … application post-emergence” value is 5; the “ALOMY … application post-emergence” value stood at 5; the “AMARE … application post-emergence” value amounted to 5; the “ECHCG … application post-emergence” value stood at 5. Also, in data set [2], the “SETFA (Setaria faberi) damage score” value is recorded as 5 and the “ZEAMX (Zea mays) damage score” value is 5.
As to `CC1=C(Br)C(=O)N(c2cc(C(C)(C)C#N)on2)C1O` (centres unmarked) [A53], the melting point was 138 to 140 °C. For the same compound, in data set [1], the “Pre-emergence herbicidal damage score, ABUTH” value worked out at 5; the “Pre-emergence herbicidal damage score, ALOMY” value amounted to 4; the “Pre-emergence herbicidal damage score, AMARE” value is recorded as 5; the “Pre-emergence herbicidal damage score, ECHCG” value is recorded as 5. In addition, in data set [1], the “Pre-emergence herbicidal damage score, SETFA” value is given as 5 and the “Pre-emergence herbicidal damage score, ZEAMX” value turned out to be 4. Further, in data set [2], the “ABUTH … application post-emergence” value came out at 5; the “ALOMY … application post-emergence” value worked out at 5; the “AMARE … application post-emergence” value was found to be 5; the “ECHCG … application post-emergence” value was 5. In data set [2], the “SETFA (Setaria faberi) damage score” value turned out to be 5 and the “ZEAMX (Zea mays) damage score” value was 5.
As for `CCCC1=C(Cl)C(=O)N(c2noc(C(C)(C)C)c2C#N)C1O` (centres unmarked) [A54], the melting point is 133 to 135 °C. In addition, in data set [1], the “Pre-emergence herbicidal damage score, ABUTH” value is 5; the “Pre-emergence herbicidal damage score, ALOMY” value was 4; the “Pre-emergence herbicidal damage score, AMARE” value is reported as 5; the “Pre-emergence herbicidal damage score, ECHCG” value is 5. For the same compound, in data set [1], the “Pre-emergence herbicidal damage score, SETFA” value came to 5 and the “Pre-emergence herbicidal damage score, ZEAMX” value is listed as 4. Also, in data set [2], the “ABUTH … application post-emergence” value came to 5; the “ALOMY … application post-emergence” value amounted to 5; the “AMARE … application post-emergence” value was 5; the “ECHCG … application post-emergence” value stood at 5. In data set [2], the “SETFA (Setaria faberi) damage score” value came out at 5 and the “ZEAMX (Zea mays) damage score” value worked out at 5.
Take `CCC1=C(Br)C(=O)N(c2noc(C(C)(C)C)c2C#N)C1O` (centres unmarked) [A55]: the melting point was 138 to 140 °C. Also, in data set [1], the “Pre-emergence herbicidal damage score, ABUTH” value amounted to 5; the “Pre-emergence herbicidal damage score, ALOMY” value is listed as 4; the “Pre-emergence herbicidal damage score, AMARE” value is 5; the “Pre-emergence herbicidal damage score, ECHCG” value came out at 5. In data set [1], the “Pre-emergence herbicidal damage score, SETFA” value came to 5 and the “Pre-emergence herbicidal damage score, ZEAMX” value stood at 3. Besides, in data set [2], the “ABUTH … application post-emergence” value was determined as 5; the “ALOMY … application post-emergence” value is listed as 5; the “AMARE … application post-emergence” value amounted to 5; the “ECHCG … application post-emergence” value was found to be 5. Besides, in data set [2], the “SETFA (Setaria faberi) damage score” value worked out at 5 and the “ZEAMX (Zea mays) damage score” value was found to be 4.
Regarding `CCC1=C(Cl)C(=O)N(c2noc(C(C)(C)C)c2C#N)C1O` (centres unmarked) [A58], the melting point lay within 134 to 136 °C. In addition, in data set [1], the “Pre-emergence herbicidal damage score, ABUTH” value was 5; the “Pre-emergence herbicidal damage score, ALOMY” value is recorded as 4; the “Pre-emergence herbicidal damage score, AMARE” value came out at 5; the “Pre-emergence herbicidal damage score, ECHCG” value is 5. Further, in data set [1], the “Pre-emergence herbicidal damage score, SETFA” value was determined as 5 and the “Pre-emergence herbicidal damage score, ZEAMX” value was 4. Moreover, in data set [2], the “ABUTH … application post-emergence” value was found to be 5; the “ALOMY … application post-emergence” value is reported as 5; the “AMARE … application post-emergence” value was 5; the “ECHCG … application post-emergence” value came to 5. Further, in data set [2], the “SETFA (Setaria faberi) damage score” value is on record as 5 and the “ZEAMX (Zea mays) damage score” value was 5.
On to `CCC1=C(Cl)C(=O)N(c2noc(C(C)(C)CC)c2C#N)C1O` (centres unmarked) [A60], for which the melting point fell in the range of 110 to 112 °C. In data set [1], the “Pre-emergence herbicidal damage score, ABUTH” value is 5; the “Pre-emergence herbicidal damage score, ALOMY” value was 3; the “Pre-emergence herbicidal damage score, AMARE” value is 5; the “Pre-emergence herbicidal damage score, ECHCG” value was 4. In addition, in data set [1], the “Pre-emergence herbicidal damage score, SETFA” value is 5 and the “Pre-emergence herbicidal damage score, ZEAMX” value is 3. In data set [2], the “ABUTH … application post-emergence” value is 5; the “ALOMY … application post-emergence” value was 4; the “AMARE … application post-emergence” value came out at 5; the “ECHCG … application post-emergence” value is reported as 5. Also, in data set [2], the “SETFA (Setaria faberi) damage score” value amounted to 5 and the “ZEAMX (Zea mays) damage score” value was 2.
